Laboratory results: US6096909A, “Taxoid anti-tumor agents and pharmaceutical compositions thereof” (The Research Foundation of State University of New York, priority 1997, dated 2000)
pIC50: −log10 of the molar value. Where two headings read alike, the source gives them in different places.

Experiments:
[1] = test system: A121 human ovarian, A549 human non-small cell lung, HT-29 human colon and MCF7 human breast cancer cells; experiment: Cytotoxicity against human cancer cell panel, stated jointly for the four lines
[2] = test system: A121 (ovarian carcinoma); experiment: Tumor cell growth inhibition (SRB), 72 h; type: cell-based; details: Homo sapiens, read-out: concentration of compound which inhibit 50% (IC50) of the growth of human tumor cell line
[3] = test system: A549 (non-small cell lung carcinoma); experiment: Tumor cell growth inhibition (SRB), 72 h; type: cell-based; details: Homo sapiens, read-out: concentration of compound which inhibit 50% (IC50) of the growth of human tumor cell line
[4] = test system: HT-29 (colon carcinoma); experiment: Tumor cell growth inhibition (SRB), 72 h; type: cell-based; details: Homo sapiens, read-out: concentration of compound which inhibit 50% (IC50) of the growth of human tumor cell line
[5] = test system: MCF7 (mammary carcinoma); experiment: Tumor cell growth inhibition (SRB), 72 h; type: cell-based; details: Homo sapiens, read-out: concentration of compound which inhibit 50% (IC50) of the growth of human tumor cell line
[6] = recent report on clinical trials; cited from earlier work
[7] = test system: breast and lung cancers; details: United States, Europe, and Japan; cited from earlier work
[8] = test system: drug-resistant tumors, e.g., adriamycin-resistant breast cancer; details: cited from earlier work
[9] = relative to paclitaxel; cited from earlier work
[10] = relative to paclitaxel; cited from earlier work; remark: listed apart in the source
[11] = test system: MCF7-R (mammary carcinoma cells 180-fold resistant to adriamycin); experiment: Tumor cell growth inhibition (SRB), 72 h; type: cell-based, human; details: for pIC50: Homo sapiens, MCF7R, read-out: concentration of compound which inhibit 50% (IC50) of the growth of human tumor cell line
[12] = test system: human colon carcinoma cells HCT-116; details: cited from earlier work
[13] = A121 (ovarian), 72 h drug exposure, mean of at least three experiments
[14] = A549 (NSCLC), 72 h drug exposure, mean of at least three experiments
[15] = HT-29 (colon), 72 h drug exposure, mean of at least three experiments
[16] = MCF7 (breast), 72 h drug exposure, mean of at least three experiments

CC(=O)O[C@@]12CO[C@@H]1C[C@H](O)[C@@]1(C)C(=O)[C@H](O)C3=C(C)[C@@H](OC(=O)[C@H](O)[C@H](C=Cc4ccccc4)NC(=O)OC(C)(C)C)C[C@@](O)([C@@H](OC(=O)c4ccccc4)[C@H]21)C3(C)C [3'-dephenyl-3'-(2-phenylethenyl)docetaxel]
decreased cytotoxicity ([1]; fold decrease): > 20 times

CC(=O)O[C@@]12CO[C@@H]1C[C@H](O)[C@@]1(C)C(=O)[C@H](O)C3=C(C)[C@@H](OC(=O)[C@H](O)[C@H](CC(C)(C)C)NC(=O)OC(C)(C)C)C[C@@](O)([C@@H](OC(=O)c4ccccc4)[C@H]21)C3(C)C [3'-dephenyl-3'-neopentyldocetaxel]
cytotoxicity ([1]; in words): virtually not cytotoxic

CC(=O)O[C@@]12CO[C@@H]1C[C@H](O)[C@@]1(C)C(=O)[C@H](O)C3=C(C)[C@@H](OC(=O)[C@H](O)[C@@H](NC(=O)OC(C)(C)C)c4ccccc4)C[C@@](O)([C@@H](OC(=O)c4ccccc4)[C@H]21)C3(C)C [Docetaxel]
pIC50 [2, 13]: 8.92
pIC50 [3, 14]: 9.00
pIC50 [4, 15]: 8.92
pIC50 [5, 16]: 9.00
side effects in clinical trials [6]: mouth sores and plunge in white blood cells
activity in phase II and III clinical trials [7]: excellent activities, especially against breast and lung cancers
activity against drug-resistant tumors [8]: only a weak activity
antitumor activity compared with paclitaxel [9]: superior to paclitaxel
bioavailability compared with paclitaxel [10]: better bioavailability

CC(=O)O[C@H]1C(=O)[C@@]2(C)[C@H]([C@H](OC(=O)c3ccccc3)[C@]3(O)C[C@H](OC(=O)[C@H](O)[C@@H](NC(=O)c4ccccc4)c4ccccc4)C(C)=C1C3(C)C)[C@]1(OC(C)=O)CO[C@@H]1C[C@@H]2O [Paclitaxel]
pIC50 ([2]; A121, 72 h): 8.21
pIC50 ([4]; HT-29, 72 h): 8.49
pIC50 ([5]; MCF7, 72 h): 8.77
pIC50 ([11]; 72 h): 6.52
side effects in clinical trials [6]: nerve damage, muscle pain or disturbances in heart rhythm
activity against drug-resistant tumors [8]: only a weak activity

CC(=O)O[C@H]1C(=O)[C@@]2(C)[C@H]([C@H](OC(=O)c3ccccc3)[C@]3(O)C[C@H](OC(=O)[C@H](O)[C@H](C=C(C)C)NC(=O)c4ccccc4)C(C)=C1C3(C)C)[C@]1(OC(C)=O)CO[C@@H]1C[C@@H]2O [RAH-1, 3'-dephenyl-3'-isobutenylpaclitaxel]
pIC50 ([2]; A121, 72 h): 8.85
pIC50 ([3]; A549, 72 h): 9.35
pIC50 ([4]; HT-29, 72 h): 9.02
pIC50 ([5]; MCF7, 72 h): 9.27
times better activity than docetaxel ([12]; relative to docetaxel): 7 times
times better activity than paclitaxel ([12]; relative to paclitaxel): 4 times

CC=C[C@H](NC(=O)OC(C)(C)C)[C@@H](O)C(=O)O[C@H]1C[C@@]2(O)[C@@H](OC(=O)c3ccccc3)[C@@H]3[C@]4(OC(C)=O)CO[C@@H]4C[C@H](O)[C@@]3(C)C(=O)[C@H](OC(C)=O)C(=C1C)C2(C)C [Taxoid Ia]
pIC50 [2, 13]: 9.05
pIC50 [3, 14]: 9.27
pIC50 [4, 15]: 9.12
pIC50 [5, 16]: 9.29
pIC50 ([11]; MCF7-R, 72 h drug exposure, mean of at least three experiments): 7.85
times better activity than docetaxel ([11]; MCF7-R, relative to docetaxel): 17 times
times better activity than paclitaxel ([11]; MCF7-R, relative to paclitaxel): 21 times
activity spectrum compared with paclitaxel and docetaxel ([1]; relative to paclitaxel and docetaxel): considerably better activity spectrum
